Laboratory results from patent US12570612B2, “Substituted nitrogen heterocyclic compound and anesthetic effect thereof” (priority 2019, dated 2026).
Entries after “also recorded” stand apart in the source; their conditions may differ. Like-named read-outs stand apart in the source and are kept apart here.

What was measured:
Sprague-Dawley rats [1] = experiment: Pharmacological characteristics at equivalent doses (2ED50), Group A compounds; format: in vivo; design: Sedation duration: unit not given here; conditions: 2ED50, tail vein; for Types and incidence of adverse reactions: (animals affected/animals)
H295R cell line = experiment: Adrenocortical function in vitro test: secretion of cortisol and corticosterone, Group A compounds; format: cell-based; conditions: H295 cells; for EC50: 0.1-10000 nM, HPLC-MS/MS
Sprague-Dawley rats [2] = experiment: animal or person; conditions: for Approximate therapeutic index / Minimal lethal dose: rats
Experimental: Adult male Sprague-Dawley rats (250-300 g) were selected for the experiment. […] The anesthesia effects of the compounds were assessed in rats using a LORR assay and a period >30 s was considered as an indicator of general anesthesia.

[3] = Homo sapiens, read-out: EC50 (Corticosterone)
[4] = Homo sapiens, read-out: EC50 (Cortisol)

## C=CC1(OC(=O)c2ccnn2[C@H](C)c2ccccc2)COC1 [Compound A34]
Sprague-Dawley rats [1]
  Onset time: 0.60 ± 0.32 min
  Righting reflex duration: 1.6 ± 0.43 min
  Types and incidence of adverse reactions: Red urine(8/8), Hindlimb; also recorded: rigidity(2/8), Tremor(1/8)
H295R cell line
  Corticosterone as an indicator to determine the presence of inhibition: 0
  Cortisol as an indicator to determine the presence of inhibition: 0
H295R cell line; [3]
  EC50: > 1000 nM
H295R cell line; [4]
  EC50: > 1000 nM
Sprague-Dawley rats [2]; Rattus norvegicus
  ED50: 0.5 to 1 mg/kg
Sprague-Dawley rats [2]
  Approximate therapeutic index: >6
  Minimal lethal dose: >4 mg/kg

## C=CC#CC(C)OC(=O)c1ccnn1[C@H](C)c1ccccc1 (stereo partly shown) [Compound A15]
Sprague-Dawley rats [1]
  Onset time: 0.40 ± 0.10 min
  Righting reflex duration: 1.82 ± 0.76 min
  Types and incidence of adverse reactions: Red urine(8/8),; also recorded: Euphoria(2/8), Hindlimb; also recorded: rigidity(2/8), Hindlimb; also recorded: Tremor(1/8)
H295R cell line
  Corticosterone as an indicator to determine the presence of inhibition: 0
  Cortisol as an indicator to determine the presence of inhibition: 0
H295R cell line; [3]
  EC50: > 100 nM
H295R cell line; [4]
  EC50: > 100 nM
Sprague-Dawley rats [2]; Rattus norvegicus
  ED50: 2 to 6 mg/kg
Sprague-Dawley rats [2]
  Approximate therapeutic index: >4
  Minimal lethal dose: >9 mg/kg

## C[C@H](c1ccccc1)n1nc(F)cc1C(=O)OC(C)(C)C [Compound A57]
Sprague-Dawley rats [1]
  Onset time: 0.42 ± 0.16 min
  Righting reflex duration: 1.48 ± 0.51 min
  Types and incidence of adverse reactions: Red and urine(7/7), GeneralTremor and (2/7), Tetany and convulsion(2/7)
H295R cell line
  Corticosterone as an indicator to determine the presence of inhibition: 0
  Cortisol as an indicator to determine the presence of inhibition: 0
H295R cell line; [3]
  EC50: > 100 nM
H295R cell line; [4]
  EC50: > 100 nM
Sprague-Dawley rats [2]; Rattus norvegicus
  ED50: 2 to 6 mg/kg
Sprague-Dawley rats [2]
  Approximate therapeutic index: >7
  Minimal lethal dose: >15 mg/kg

## CCC(CC)OC(=O)c1ccnn1[C@H](C)c1ccccc1 [Compound A21]
Sprague-Dawley rats [1]
  Onset time: 0.51 ± 0.10 min
  Righting reflex duration: 1.16 ± 0.39 min
  Sedation duration: 8.65 ± 2.38
  Types and incidence of adverse reactions: Red and urine(8/8), Euphoria(3/8), and Four limbs Tremor(2/8), and Hindlimb rigidity (2/8)
H295R cell line
  Corticosterone as an indicator to determine the presence of inhibition: 0
  Cortisol as an indicator to determine the presence of inhibition: 0
H295R cell line; read-out: EC50 (Corticosterone)
  EC50: > 100 nM
H295R cell line; read-out: EC50 (Cortisol)
  EC50: > 100 nM
Sprague-Dawley rats [2]; LORR in rats, tail vein, brackets = 95% confidence limit
  ED50: D (D indicates that the measured ED50 is in the range of 2.00-6.00 mg/kg (excluding 2.00 mg/kg, including 6.00 mg/kg))
Sprague-Dawley rats [2]
  Approximate therapeutic index: >16
  Minimal lethal dose: >6 mg/kg

## CC#CCOC(=O)c1ccnn1[C@H](C)c1ccccc1 [Compound A23]
Sprague-Dawley rats [1]
  Onset time: 0.48 ± 0.14 min
  Righting reflex duration: 2.28 ± 1.83 min
  Types and incidence of adverse reactions: Red and urine(8/8), Euphoria(6/8), and Hindlimb rigidity and (2/8), Tremor(1/8), and Convulsions(1/8)
H295R cell line
  Corticosterone as an indicator to determine the presence of inhibition: 0
  Cortisol as an indicator to determine the presence of inhibition: 0
H295R cell line; [3]
  EC50: > 100 nM
H295R cell line; [4]
  EC50: > 100 nM
Sprague-Dawley rats [2]; Rattus norvegicus
  ED50: 2 to 6 mg/kg
Sprague-Dawley rats [2]
  Approximate therapeutic index: >5
  Minimal lethal dose: >11 mg/kg

## COC(=O)C1=C(OC(=O)c2c(C(F)(F)F)cnn2[C@H](C)c2ccccc2)CCCC1 [Compound A101]
Sprague-Dawley rats [1]
  Onset time: 0.39 ± 0.21 min
  Righting reflex duration: 2.29 ± 0.65 min
  Types and incidence of adverse reactions: Red and urine(8/8), Euphoria(3/8), and Nod(2/8)
H295R cell line
  Corticosterone as an indicator to determine the presence of inhibition: 0
  Cortisol as an indicator to determine the presence of inhibition: 0
H295R cell line; [3]
  EC50: > 100 nM
H295R cell line; [4]
  EC50: > 100 nM
Sprague-Dawley rats [2]; Rattus norvegicus
  ED50: 1 to 2 mg/kg
Sprague-Dawley rats [2]
  Approximate therapeutic index: >8
  Minimal lethal dose: >13 mg/kg

## C=CC1(OC(=O)c2cc(F)nn2[C@H](C)c2ccccc2)COC1 [Compound A65]
Sprague-Dawley rats [1]
  Onset time: 0.36 ± 0.15 min
  Righting reflex duration: 2.48 ± 0.67 min
  Types and incidence of adverse reactions: Red and urine(8/8), Tremor(2/8)
H295R cell line
  Corticosterone as an indicator to determine the presence of inhibition: 0
  Cortisol as an indicator to determine the presence of inhibition: 0
H295R cell line; [3]
  EC50: > 100 nM
H295R cell line; [4]
  EC50: > 100 nM
Sprague-Dawley rats [2]; Rattus norvegicus
  ED50: 2 to 6 mg/kg
Sprague-Dawley rats [2]
  Approximate therapeutic index: >7
  Minimal lethal dose: >16 mg/kg

## C#CC1(OC(=O)c2cc(F)nn2[C@H](C)c2ccccc2)COC1 [Compound A53]
Sprague-Dawley rats [1]
  Onset time: 0.53 ± 0.28 min
  Righting reflex duration: 3.01 ± 1.22 min
  Types and incidence of adverse reactions: Red and urine(8/8), Tremor(2/8)
H295R cell line
  Corticosterone as an indicator to determine the presence of inhibition: 0
  Cortisol as an indicator to determine the presence of inhibition: 0
H295R cell line; [3]
  EC50: > 100 nM
H295R cell line; [4]
  EC50: > 100 nM
Sprague-Dawley rats [2]; Rattus norvegicus
  ED50: 2 to 6 mg/kg
Sprague-Dawley rats [2]
  Approximate therapeutic index: >6
  Minimal lethal dose: >14 mg/kg

## CC(=O)C1=C(OC(=O)c2c(F)c(F)nn2[C@H](C)c2ccccc2)CCC1 [Compound A98]
Sprague-Dawley rats [1]
  Onset time: 0.30 ± 0.06 min
  Righting reflex duration: 1.89 ± 0.23 min
  Types and incidence of adverse reactions: Red urine(8/8), Facial; also recorded: muscle; also recorded: twitching(2/8), Hindlimb; also recorded: rigidity (1/8)
H295R cell line
  Corticosterone as an indicator to determine the presence of inhibition: 0
  Cortisol as an indicator to determine the presence of inhibition: 0
H295R cell line; [3]
  EC50: > 1000 nM
H295R cell line; [4]
  EC50: > 1000 nM
Sprague-Dawley rats [2]; Rattus norvegicus
  ED50: 1 to 2 mg/kg
Sprague-Dawley rats [2]
  Approximate therapeutic index: >7
  Minimal lethal dose: >10 mg/kg
